Data reported in US20160081985A1, “CENICRIVIROC COMPOSITIONS AND METHODS OF MAKING AND USING THE SAME” (Tobira Therapeutics, Inc., priority 2013, published 2016).

Columns and labels:
[1] = humans; efavirenz as inducer of CYP3A4; cited from earlier work
[2] = Steady-state vs single dose exposure in various other clinical trials; format: in vivo, human; details: different formulations
[3] = Dissolution time of acid solubilizers in purified water (FBRM); format: physicochemical; details: 200 mg acid in 90 mL purified water, 250 rpm
Description: The results described in Table 1 were performed by adding 200 mg of the acid to 90 mL purified water using a Mettler Toledo mixing chamber held at the specified temperature with an upward pumping four blade impeller at 250 rpm. The disappearance of particles undergoing dissolution was monitored by focused-beam reflectance measurement (FBRM). Data was analyzed by reviewing individual 2 second measurement trends as well as trends averaged over 10 and 30 seconds.

[4] = Disintegration behavior of tablets in approximately 250 mL water; format: physicochemical; details: single tablet in approximately 250 mL water

Row | Structure (SMILES) | Dissolution time ([3]; 25° C.) [s] | Dissolution time ([3]; 37° C.) [s] | further results
1 | CCCCOCCOc1ccc(-c2ccc3c(c2)/C=C(/C(=O)Nc2ccc([S@@+]([O-])Cc4cncn4CCC)cc2)CCCN3CC(C)C)cc1 [cenicriviroc, (S,E)-8-(4-(2-Butoxyethoxy)phenyl)-1-(2-methylpropyl)-N-(4-(((1-propyl-1H-imidazol-5-yl)methyl)sulfinyl)phenyl)-1,2,3,4-tetrahydrobenzo[b]azocine-5-carboxamide] |  |  | Decrease of cenicriviroc plasma concentration by efavirenz [1]: approximately 2 fold; Steady-state exposure level (AUC, day 10) relative to single dose exposure [2]: approximately 1.5 fold
2 | O=C(O)/C=C/C(=O)O [Fumaric, Fumaric Acid] | 312 | 152 | 
3 | O=C(O)/C=C\C(=O)O [Maleic, Maleic Acid] | 4 | <2 | 
4 | Nc1ccn([C@@H]2CS[C@H](CO)O2)c(=O)n1 [lamivudine] |  |  | Disintegration Observations (mode) [4]: Rapid; Disintegration time [4]: tion <30 seconds
